Data on 1 compound can be found in ChEMBL document CHEMBL1667764, “Characterization of the baicalein-bovine serum albumin complex without or with Cu2+ or Fe3+ by spectroscopic approaches” (Eur J Med Chem, 2011).

Holding throughout (settings): cattle
Data set [1] deals with T1, Albumin (Bos taurus, UniProt P02769). Nature of the data set: Binding affinity to bovine serum albumin at pH 7.4 at 310K in presence of Fe3+ by fluorescence quenching.
In data set [2] the target is T1, Albumin. Nature of the data set: Binding affinity to bovine serum albumin at pH 7.4 at 310K in presence of Fe3+ by fluorescence quenching logarithmic plot.
For data set [3], the target named is T1, Albumin. Nature of the data set: Binding affinity to bovine serum albumin using 6x10'-6 Lmol'-1 at pH 7.4 at 310K by Stern-Volmer plot.
For data set [4], the target named is T1, Albumin. Description: Binding affinity to bovine serum albumin using 3x10'-6 Lmol'-1 at pH 7.4 at 310K by Stern-Volmer plot.
The target of data set [5] is T1, Albumin. Nature of the data set: Binding affinity to bovine serum albumin at pH 7.4 at 310K in presence of Cu2+ by fluorescence quenching.
Data set [6] deals with T1, Albumin. Description: Binding affinity to bovine serum albumin at pH 7.4 at 310K in presence of Cu2+ by fluorescence quenching logarithmic plot.
The target of data set [7] is T1, Albumin. Nature of the data set: Binding affinity to bovine serum albumin at pH 7.4 at 310K by fluorescence quenching.
Data set [8] has as its target T1, Albumin. Description: Binding affinity to bovine serum albumin at pH 7.4 at 310K by fluorescence quenching logarithmic plot.
For data set [9], the target named is T1, Albumin. Description: Binding affinity to bovine serum albumin using 4.5x10'-6 Lmol'-1 at pH 7.4 at 310K by Stern-Volmer plot.

T1 sequence (P02769 whole entry): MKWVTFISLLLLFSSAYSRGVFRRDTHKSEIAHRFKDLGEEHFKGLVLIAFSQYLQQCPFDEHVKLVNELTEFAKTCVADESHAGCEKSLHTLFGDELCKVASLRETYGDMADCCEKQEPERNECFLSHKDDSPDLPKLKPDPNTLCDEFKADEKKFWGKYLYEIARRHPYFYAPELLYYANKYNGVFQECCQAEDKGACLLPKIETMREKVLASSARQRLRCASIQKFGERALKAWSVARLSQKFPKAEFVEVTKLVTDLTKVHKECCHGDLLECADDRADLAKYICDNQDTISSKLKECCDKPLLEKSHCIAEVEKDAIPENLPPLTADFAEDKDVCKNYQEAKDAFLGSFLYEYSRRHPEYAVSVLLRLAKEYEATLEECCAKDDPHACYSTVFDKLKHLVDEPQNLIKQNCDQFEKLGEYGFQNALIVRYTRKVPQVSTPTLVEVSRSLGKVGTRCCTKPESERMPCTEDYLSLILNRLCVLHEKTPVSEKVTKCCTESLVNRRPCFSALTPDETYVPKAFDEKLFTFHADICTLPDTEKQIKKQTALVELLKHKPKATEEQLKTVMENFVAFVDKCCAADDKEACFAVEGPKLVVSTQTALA

In the case of `O=c1cc(-c2ccccc2)oc2cc(O)c(O)c(O)c12` [BAICALEIN], the KSV at Albumin [1] came out at 1.6 ×10⁵ L/mol; at Albumin [3], 1.51 ×10⁵ L/mol; at Albumin [4] it was 2.11 ×10⁵ L/mol; at Albumin [5] it was 1.76 ×10⁵ L/mol; at Albumin [7], 1.96 ×10⁵ L/mol; on Albumin [9] it was 1.96 ×10⁵ L/mol. Further, the Kq on Albumin [1] is 3.2 ×10¹³ L/mol/s; at Albumin [3], 3.02 ×10¹³ L/mol/s; on Albumin [4], 4.22 ×10¹³ L/mol/s; at Albumin [5], 3.52 ×10¹³ L/mol/s; on Albumin [7] it was 3.92 ×10¹³ L/mol/s; at Albumin [9], 3.92 ×10¹³ L/mol/s. Besides, the K was determined as 4.85 ×10⁴ L/mol on Albumin [2], 1.88 ×10⁵ L/mol at Albumin [6] and 2.7 ×10⁵ L/mol at Albumin [8].
